Test results: US6143764A, “Quinoline and quinazoline derivatives inhibiting platelet-derived growth factor receptor autophosphorylation and pharmaceutical compositions containing the same” (priority 1995, dated 2000)
Read-outs that look alike come from different tables or passages of the source.

Experiments:
[1] = target: T1, PDGF receptor (Rattus norvegicus, UniProt Q05030); test: PDGF receptor autophosphorylation inhibition in cultured rat mesangial cells; format: cell-based; conditions: PDGF-BB 50 ng/ml
T1 construct: cultured rat mesangial cells which are known to have the PDGF receptor; endogenous in cells; host or cells: primary mesangial cells cultured from glomeruli of Wistar-Kyoto rats (Charles River Japan), more than 5 passages
Description: 1. Cultivation of rat mesangial cells
The glomerulus-derived adhesive cells were subcultured several times to obtain mesangial cells. The mesangial cells subcultured more than 5 passages were used for the assay.
2.Evaluation of PDGF receptor autophosphorylation inhibition
The mesangial cells were seeded in 24-well flat-bottom microtiter plates and then cultured in the medium containing 10% FCS for 2 days. When the cells were grown to about 3×10^4 cells per well, the medium was changed to the medium containing 0.5% FCS, the cultivation was continued for another 3 days, and then cell growth was arrested. The culture medium was removed, the adhered cells were washed with 500 μl of the medium, and 250 μl of the medium containing 0.1% bovine serum albumin (hereinafter abbreviated to BSA) was then added. A test drug dissolved in 1.38 μl of dimethyl sulfoxide (hereinafter abbreviated to DMSO) was added to this culture medium, and the admixture was incubated at 37° C. for 1 hour. Recombinant human platelet-derived growth factor BB chain (hereinafter abbreviated to PDGF-BB) was dissolved in the medium containing 0.1% BSA, 25 μl per well of the solution was added at final 50 ng/ml, and the incubation was continued at 37° C. for 10 minutes. […] The cells were allowed to stand at 4° C. for 30 minutes for lysis, and the resulting solution was thoroughly admixed with an equal amount of Tris-buffered physiological saline containing 1% sodium dodecyl sulfate (hereinafter abbreviated to SDS). […] After the electrophoresis, proteins in the gel were electrically transferred to a PVDF filter, which was then subjected to Western blotting using monoclonal antibodies against phosphotyrosine. Bands of PDGF receptor (molecular weight: about 180 Kda) which were autophosphorylated due to the addition of PDGF-BB were quantitated by a densitometer. Autophosphorylation rates for individual wells with drugs were calculated by setting measurements for PDGF receptor autophosphorylation in the wells without drugs in the presence and absence of PDGF-BB as 100% and 0%, respectively.

[2] = system: human glioma (GLO7); test: Antitumor effect of the compounds against human glioma (GLO7), nude mice xenograft; format: in vivo; conditions: Mus musculus, po, 216 h, read-out: Tumor growth inhibition rate (TGIR)
Description: Analogously to 2, human glioma cells, GLO7 (obtained from the Central Institute for Experimental Animals), was transplanted into nude mice. When the tumor had grown to a volume of about 100 mm^3, the nude mice were divided into several groups of 4 animals so as to equalize the average tumor volumes of each group. The test drug was administered orally to animals in experimental groups once a day for 9 consecutive days at 50 mg/kg, and the vehicle was administered to control animals. The tumor growth inhibition rate (TGIR, %) was calculated from the equation: TGIR=(1-Tx/Cx)×100, in which Cx is the tumor volume in the control mice and Tx is the tumor volume in the drug-treated mice, on day X, when the initial tumor volume at the time treatment was commenced is set 1.

[3] = nude mice, 50 mg/kg orally once a day, 9 days

T1 sequence (Q05030 32-1097): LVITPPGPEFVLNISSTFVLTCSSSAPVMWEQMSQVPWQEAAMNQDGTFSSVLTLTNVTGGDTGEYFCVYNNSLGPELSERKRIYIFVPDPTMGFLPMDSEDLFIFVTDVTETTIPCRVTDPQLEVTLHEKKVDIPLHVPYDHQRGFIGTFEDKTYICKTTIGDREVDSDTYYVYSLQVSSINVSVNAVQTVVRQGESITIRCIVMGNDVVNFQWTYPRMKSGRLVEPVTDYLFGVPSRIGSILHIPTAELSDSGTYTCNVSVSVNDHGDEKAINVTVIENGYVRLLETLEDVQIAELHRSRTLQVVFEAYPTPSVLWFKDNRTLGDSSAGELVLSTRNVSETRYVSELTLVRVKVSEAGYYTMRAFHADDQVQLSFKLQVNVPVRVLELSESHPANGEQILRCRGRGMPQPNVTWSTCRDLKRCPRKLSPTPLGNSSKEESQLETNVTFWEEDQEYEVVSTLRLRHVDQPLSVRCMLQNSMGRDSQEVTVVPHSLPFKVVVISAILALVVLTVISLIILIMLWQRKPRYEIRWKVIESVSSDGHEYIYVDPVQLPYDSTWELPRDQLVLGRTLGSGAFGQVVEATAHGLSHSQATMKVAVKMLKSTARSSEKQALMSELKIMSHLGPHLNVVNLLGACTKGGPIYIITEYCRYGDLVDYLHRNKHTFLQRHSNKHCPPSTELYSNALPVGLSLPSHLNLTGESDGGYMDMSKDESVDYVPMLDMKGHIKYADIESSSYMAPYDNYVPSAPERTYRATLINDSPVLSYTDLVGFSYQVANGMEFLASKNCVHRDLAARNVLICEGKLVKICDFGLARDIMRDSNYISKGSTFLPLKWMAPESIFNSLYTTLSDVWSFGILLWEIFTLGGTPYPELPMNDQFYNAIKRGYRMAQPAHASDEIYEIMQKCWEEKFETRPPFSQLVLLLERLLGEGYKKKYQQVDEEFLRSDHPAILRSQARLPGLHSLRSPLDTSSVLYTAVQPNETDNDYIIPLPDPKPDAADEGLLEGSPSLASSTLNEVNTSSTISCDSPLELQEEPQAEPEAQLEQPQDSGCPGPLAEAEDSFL

Row | IC50 [1] [nM] | Compound | inhibition in vivo at 50 mg/kg [2, 3] [%] | inhibition in vivo at 50 mg/kg [2] [%]
1 | 6 | COc1cc2nccc(Oc3ccc(NC(=O)Nc4ccc(F)cc4)cc3)c2cc1OC [Compound 44, N-(4-Fluorophenyl)-N'-{4-[(6,7-dimethoxy-4-quinolinyl)oxy]phenyl}urea] | 78 | –
2 | 30 | COc1cc2nccc(Oc3ccc(NC(=O)Nc4ccc(C(F)(F)F)cc4)cc3)c2cc1OC [Compound 52, N-(4-Trifluoromethylphenyl)-N'-{4-[(6,7-dimethoxy-4-quinolinyl)oxy]phenyl}urea] | 86 | –
3 | 4 | COc1cc2nccc(Oc3ccc(NC(=O)Nc4ccccc4C)cc3)c2cc1OC [Compound 56, N-{4-[(6,7-Dimethoxy-4-quinolyl)oxy]phenyl}-N'-(2-methylphenyl)urea] | 52 | –
4 | 6 | COc1cc2nccc(Oc3ccc(NC(=O)Nc4ccccc4[N+](=O)[O-])cc3)c2cc1OC [Compound 168, N-{4-[(6,7-Dimethoxy-4-quinolyl)oxy]phenyl}-N'-(2-nitrophenyl)urea] | 56 | –
5 | 47 | COc1cc2nccc(Oc3ccc(NC(=O)Nc4cccc(Cl)c4OC)cc3)c2cc1OC [Compound 225, N-(3-Chloro-2-methoxyphenyl)-N'-{4-[(6,7-dimethoxy-4-quinolyl)oxy]phenyl}urea] | 58 | –
6 | 18 | COc1cc2nccc(Oc3ccc(NC(=O)Nc4ccc(Cl)cc4C)cc3)c2cc1OC [Compound 242, N-(4-Chloro-2-methylphenyl)-N'-{4-[(6,7-dimethoxy-4-quinolyl)oxy]phenyl}urea] | 62 | –
7 | 9 | COc1cc2nccc(Oc3ccc(NC(=O)Nc4ccc(Cl)c(N)c4)cc3)c2cc1OC [Compound 244, N-(3-Amino-4-chlorophenyl)-N'-{4-[(6,7-dimethoxy-4-quinolyl)oxy]phenyl}urea] | 73 | –
8 | 7 | COc1cc2nccc(Oc3ccc(NC(=O)Nc4ccc(F)c(F)c4)cc3)c2cc1OC [Compound 254, N-(3,4-Difluorophenyl)-N'-(4-[(6,7-dimethoxy-4-quinolyl)oxy]phenyl)urea] | 85 | –
9 | 15 | COc1cc2nccc(Oc3ccc(NC(=O)Nc4cc(F)c(F)cc4F)cc3)c2cc1OC [Compound 255, N-(2,4,5-Trifluorophenyl)-N'-{4-[(6,7-dimethoxy-4-quinolyl)oxy]phenyl}urea] | 86 | –
10 | 2 | COc1cc2nccc(Oc3ccc(NC(=O)Nc4cccc(F)c4F)cc3)c2cc1OC [Compound 260, N-(2,3-Difluorophenyl)-N'-{4-[(6,7-dimethoxy-4-quinolyl)oxy]phenyl}urea] | 52 | –
11 | 3 | COc1cc2nccc(Oc3ccc(NC(=O)Nc4ccc(F)cc4F)cc3)c2cc1OC [Compound 272, N-(2,4-Difluorophenyl)-N'-{4-[(6,7-dimethoxy-4-quinolyl)oxy]phenyl}urea] | 84 | –
12 | 32 | COc1cc2nccc(Oc3ccc(C(=O)c4ccc(N5CCCC5)cc4)cc3)c2cc1OC [Compound 289, (4-[{6,7-Dimethoxy-4-quinolyl)oxy]phenyl)[4-pyrrolidinophenyl]methanone] | – | –
13 | 14 | N-(2-Chloro-3-methylphenyl)-N'-{4-[(6,7-dimethoxy-4-quinolyl)oxy]phenyl}urea [Compound 243] | – | –

Further lines, the compound ahead of its results:

Row | Compound | IC50 [1] [nM] | inhibition in vivo at 50 mg/kg [2, 3] [%] | inhibition in vivo at 50 mg/kg [2] [%]
14 | COc1cc2nccc(Oc3ccc(NC(=O)Nc4ccc(Br)cc4)cc3)c2cc1OC [Compound 45, N-(4-Bromophenyl)-N'-{4-[(6,7-dimethoxy-4-quinolinyl)oxy]phenyl}urea] | 14 | 68 | –
15 | COc1ccccc1NC(=O)Nc1ccc(Oc2ccnc3cc(OC)c(OC)cc23)cc1 [Compound 57] | 6 | 64 | –
16 | COc1cc2nccc(Oc3ccc(NC(=O)Nc4cccc(F)c4)cc3)c2cc1OC [Compound 59] | 4 | 82 | –
17 | COc1cc2nccc(Oc3ccc(NC(=O)Nc4ccc(Cl)cc4)cc3)c2cc1OC [Compound 165, N-(4-Chlorophenyl)-N'-{4-[(6,7-dimethoxy-4-quinolyl)oxy]phenyl}urea] | – | – | 70
18 | C=CCNC(=O)Nc1ccc(Oc2ccnc3cc(OC)c(OC)cc23)cc1 [Compound 173, N-Allyl-N'-{4-[(6,7-dimethoxy-4-quinolyl)oxy]phenyl}urea] | 16 | 54 | –
19 | CCOC(=O)NC(=O)Nc1ccc(Oc2ccnc3cc(OC)c(OC)cc23)cc1 [Compound 190, N-Ethoxycarbonyl-N'-{4-[(6,7-Dimethoxy-4-quinolyl)oxy]phenyl}urea] | 21 | 50 | –
20 | COc1cc2nccc(Oc3ccc(NC(=O)Nc4ccccc4N(C)C)cc3)c2cc1OC [Compound 191] | – | 50 | –
21 | CCCNC(=O)Nc1ccc(Oc2ccnc3cc(OC)c(OC)cc23)cc1 [Compound 194, N-{4-[(6,7-Dimethoxy-4-quinolyl)oxy]phenyl}-N'-propylurea] | 14 | 59 | –
22 | COc1ccc(Cl)cc1NC(=O)Nc1ccc(Oc2ccnc3cc(OC)c(OC)cc23)cc1 [Compound 227, N-(3-Chloro-6-methoxyphenyl)-N'-{4-[(6,7-dimethoxy-4-quinolyl)oxy]phenyl}urea] | 73 | 78 | –
23 | COc1cc2nccc(Oc3ccc(NC(=O)Nc4ccc(Cl)cc4Cl)cc3)c2cc1OC [Compound 229, N-(2,4-Dichlorophenyl)-N'-{4-[(6,7-dimethoxy-4-quinolyl)oxy]phenyl}urea] | – | – | 81
24 | COc1cc2nccc(Oc3ccc(NC(=O)Nc4cc(Cl)ccc4Cl)cc3)c2cc1OC [Compound 235] | – | – | 78
25 | COc1cc2nccc(Oc3ccc(NC(=O)Nc4ccc(Cl)c(Cl)c4)cc3)c2cc1OC [Compound 236, N-(3,4-Dichlorophenyl)-N'-[4-[(6,7-dimethoxy-4-quinolyl)oxy]phenyl}urea] | – | – | 84
26 | COc1cc2nccc(Oc3ccc(NC(=O)Nc4cc(Cl)cc(Cl)c4)cc3)c2cc1OC [Compound 237, N-(3,5-Dichlorophenyl)-N'-{4-[(6,7-dimethoxy-4-quinolyl)oxy]phenyl}urea] | – | – | 74
27 | COc1cc2nccc(Oc3ccc(NC(=O)Nc4c(F)ccc(F)c4F)cc3)c2cc1OC [Compound 262, N-(2,3,6-Trifluorophenyl)-N'-{4-[(6,7-dimethoxy-4-quinolyl)oxy]phenyl}urea] | 2 | 87 | –
28 | COc1cc2nccc(Oc3ccc(NC(=O)Nc4cc(C(F)(F)F)ccc4C(F)(F)F)cc3)c2cc1OC [Compound 264, N-(2,5-Bis(trifluoromethyl)phenyl]-N'-{4-[(6,7-dimethoxy-4-quinolyl)oxy]phenyl}urea] | – | 63 | –
29 | COc1cc2nccc(Oc3ccc(NC(=O)Nc4cccc(Cl)c4)cc3)c2cc1OC [Compound 267, N-(3-Chlorophenyl)-N'-{4-[(6,7-dimethoxy-4-quinolyl)oxy]phenyl}urea] | 150 | 65 | –
30 | COc1cc2nccc(Oc3ccc(C(=O)c4ccc(N5CCOCC5)cc4)cc3)c2cc1OC [Compound 288, {4-[(6,7-Dimethoxy-4-quinolyl)oxy]phenyl}[4-morpholinophenyl]methanone] | 24 | – | –
31 | COc1cc2nccc(Oc3ccc(C(=O)c4ccc(N5CCCCC5)cc4)cc3)c2cc1OC [Compound 290, {4-[(6,7-Dimethoxy-4-quinolyl)oxy]phenyl}[4-piperidinophenyl]methanone] | 55 | – | –
